In patent US10562898B2, “Substituted benzenesulfonamides as inhibitors of alpha-4 beta-7 integrin activity” (EA PHARMA CO., LTD., priority 2016, dated 2020):

Target: T1, α4β7 integrin (Homo sapiens, UniProt P13612+P26010)
T1 construct: a cell line RPMI-8866, which is known to express α4β7 integrin; endogenous in cells; host or cells: RPMI-8866 (human B cell line)
T1 sequence (P13612 34-1032): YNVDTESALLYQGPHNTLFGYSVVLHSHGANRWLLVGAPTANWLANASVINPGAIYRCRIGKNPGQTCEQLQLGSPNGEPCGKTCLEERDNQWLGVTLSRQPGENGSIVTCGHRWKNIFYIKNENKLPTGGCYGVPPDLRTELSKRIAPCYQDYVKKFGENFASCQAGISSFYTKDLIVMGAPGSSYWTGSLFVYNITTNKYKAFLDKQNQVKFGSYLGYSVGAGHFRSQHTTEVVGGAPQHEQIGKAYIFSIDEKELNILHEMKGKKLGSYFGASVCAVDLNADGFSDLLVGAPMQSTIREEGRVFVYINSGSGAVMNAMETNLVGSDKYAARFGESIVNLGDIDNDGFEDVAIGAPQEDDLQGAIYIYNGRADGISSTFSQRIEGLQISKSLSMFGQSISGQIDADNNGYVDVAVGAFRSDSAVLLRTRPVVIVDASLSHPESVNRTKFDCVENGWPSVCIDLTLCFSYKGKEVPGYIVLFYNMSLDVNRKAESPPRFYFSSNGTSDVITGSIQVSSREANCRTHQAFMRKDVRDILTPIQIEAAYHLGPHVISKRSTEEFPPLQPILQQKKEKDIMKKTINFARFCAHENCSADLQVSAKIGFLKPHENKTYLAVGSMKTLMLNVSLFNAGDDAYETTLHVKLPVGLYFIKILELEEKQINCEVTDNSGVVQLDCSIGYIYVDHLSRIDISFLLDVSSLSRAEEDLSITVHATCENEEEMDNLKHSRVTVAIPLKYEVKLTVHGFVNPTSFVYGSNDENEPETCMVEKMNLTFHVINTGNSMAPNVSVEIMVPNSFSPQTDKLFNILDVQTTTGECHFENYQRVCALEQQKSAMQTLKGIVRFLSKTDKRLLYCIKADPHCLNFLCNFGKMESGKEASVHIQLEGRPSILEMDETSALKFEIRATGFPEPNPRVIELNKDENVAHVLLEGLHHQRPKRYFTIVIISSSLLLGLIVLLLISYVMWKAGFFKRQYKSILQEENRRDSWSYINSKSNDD
T1 sequence (P26010 20-798): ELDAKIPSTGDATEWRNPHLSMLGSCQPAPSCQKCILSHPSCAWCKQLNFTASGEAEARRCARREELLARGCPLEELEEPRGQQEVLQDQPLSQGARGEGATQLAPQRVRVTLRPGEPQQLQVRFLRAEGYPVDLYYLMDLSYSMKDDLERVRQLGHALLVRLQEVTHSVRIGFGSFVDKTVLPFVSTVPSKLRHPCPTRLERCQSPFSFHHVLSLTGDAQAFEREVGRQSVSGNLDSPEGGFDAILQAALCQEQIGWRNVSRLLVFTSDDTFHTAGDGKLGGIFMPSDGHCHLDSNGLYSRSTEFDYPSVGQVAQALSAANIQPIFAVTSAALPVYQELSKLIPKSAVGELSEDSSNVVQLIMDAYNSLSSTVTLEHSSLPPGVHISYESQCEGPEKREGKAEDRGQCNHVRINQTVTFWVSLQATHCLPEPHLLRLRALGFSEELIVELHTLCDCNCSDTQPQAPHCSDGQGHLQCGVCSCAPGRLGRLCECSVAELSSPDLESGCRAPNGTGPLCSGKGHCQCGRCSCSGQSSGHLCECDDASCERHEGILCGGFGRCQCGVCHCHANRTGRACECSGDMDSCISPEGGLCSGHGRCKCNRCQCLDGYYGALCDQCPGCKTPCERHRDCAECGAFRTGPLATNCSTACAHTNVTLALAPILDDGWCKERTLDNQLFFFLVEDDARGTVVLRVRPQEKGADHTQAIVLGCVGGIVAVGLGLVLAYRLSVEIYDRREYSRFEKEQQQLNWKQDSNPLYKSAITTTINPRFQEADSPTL
Assay: MAdCAM-1/α4β7 integrin binding inhibitory activity evaluation test in presence of serum
Type: cell-based
Conditions: RPMI-8866 cells, recombinant mouse MAdCAM-1/Fc, 50% human serum; read-out: α4β7 Serum Added IC50
Procedure: (3) MAdCAM-1/α4β7 Integrin Binding Inhibitory Activity Evaluation Test in Presence of Serum (1)
Each test substance was measured in terms of an ability to inhibit the MAdCAM-1 binding of a human B cell line, namely, a cell line RPMI-8866, which is known to express α4β7 integrin.
A solution of recombinant mouse MAdCAM-1/Fc (R&D Systems, Inc.) (1 μg/mL) diluted with a buffer A (carbonate buffer, pH 9.6) was added in an amount of 50 μL/well to a 96-well microtiter plate, followed by incubation at 4° C. overnight. After the plate was washed with PBS once, 150 μL/well of Block Ace (Snow Brand Milk Products Co., Ltd.) was added, followed by incubation at room temperature for 2 hours. After removal, the plate was washed with PBS once.
Then, 100 μL of the RPMI-8866 cells (2×10^6 cells/mL) and 100 of the test substance at each of various concentrations diluted with a binding buffer (DMEM containing 40 mM HEPES, 0.2% BSA, and 4 mM MnCl2) were added to the plate coated with the MAdCAM-1/Fc (5×10^5 cells/well) such that 50% human serum was contained at the final concentration. Then, incubation was allowed to proceed at 30° C. for 15 to 60 minutes. After the cells were bound to the wells, the plate was washed with PBS to remove unbound cells. A buffer C (PBS containing 1.5% Triton X-100) was added in an amount 50 μL/well to the plate to lyse the bound RPMI-8866 cells. After 30 μL of a substrate buffer (Promega, CytoTox 96 Non-Radioactive Cytotoxicity Assay) was added to 30 μL of the cell lysate, a reaction was allowed to proceed at room temperature in the dark for 30 minutes. After 30 μL of a stop solution (Promega, CytoTox 96 Non-Radioactive Cytotoxicity Assay) was added to each, and then an absorbance at 490 nm was measured using a plate reader. The absorbance obtained here represents a detection result of an activity of lactate dehydrogenase (LDH) eluted in the supernatant of each well, that is, the absorbance is proportional to the number of RPMI-8866 cells bound to the MAdCAM-1 and thus remaining on the plate. The test was performed in duplicate. Provided that the absorbance of the well containing no test substance was 100%, a cell binding rate with the test substance at each of the various concentrations was figured out, and a concentration IC50 which brought about 50% binding inhibition was calculated.

Row | IC50 | SMILES
1 | 10 nM | Cn1c(=O)n(-c2ccc(C[C@H](NC(=O)c3cc(F)c(NS(=O)(=O)c4ccc(NC(=O)C(C)(C)C)cc4)cc3F)C(=O)O)cc2)c(=O)c2ccncc21 [Compound A1, (2S)-2-[[4-[[4-(2,2-dimethylpropanoylamino)phenyl]sulfonylamino]-2,5-difluoro-benzoyl]amino]-3-[4-(1-methyl-2,4-dioxo-pyrido[3,4-d]pyrimidin-3-yl)phenyl]propanoic acid]
2 | 36 nM | CC(=O)Nc1ccc(S(=O)(=O)Nc2cc(F)c(C(=O)N[C@@H](Cc3ccc(-n4c(=O)c5ccncc5n(C)c4=O)cc3)C(=O)O)cc2F)cc1 [Compound A2]
3 | 10 nM | CCC(CC)C(=O)Nc1ccc(S(=O)(=O)Nc2cc(F)c(C(=O)N[C@@H](Cc3ccc(-n4c(=O)c5ccncc5n(C)c4=O)cc3)C(=O)O)cc2F)cc1 [Compound A3]
4 | 16 nM | CCC(CC)C(=O)Nc1ccc(S(=O)(=O)Nc2cc(F)c(C(=O)N[C@@H](Cc3ccc(-n4c(=O)c(C)c(C)n(C)c4=O)cc3)C(=O)O)cc2F)cc1 [Compound A4]
5 | 70 nM | Cn1c(=O)n(-c2ccc(C[C@H](NC(=O)c3cc(F)c(NS(=O)(=O)c4ccc(NC(=O)NC(C)(C)C)cc4)cc3F)C(=O)O)cc2)c(=O)c2ccncc21 [Compound A5]
6 | 14 nM | Cn1c(=O)n(-c2ccc(C[C@H](NC(=O)c3cc(F)c(NS(=O)(=O)c4ccc(NC(=O)C5CCNCC5)cc4)cc3F)C(=O)O)cc2)c(=O)c2ccncc21 [Compound A6, (2S)-2-[[2,5-difluoro-4-[[4-(piperidine-4-carbonylamino)phenyl]sulfonylamino]benzoyl]amino]-3-[4-(1-methyl-2,4-dioxo-pyrido[3,4-d]pyrimidin-3-yl)phenyl]propanoic acid]
7 | 28 nM | Cn1c(=O)n(-c2ccc(C[C@H](NC(=O)c3cc(F)c(NS(=O)(=O)c4ccc(NC(=O)c5ccncc5)cc4)cc3F)C(=O)O)cc2)c(=O)c2ccncc21 [Compound A7]
8 | 3.7 nM | Cc1c(C)n(C)c(=O)n(-c2ccc(C[C@H](NC(=O)c3cc(F)c(NS(=O)(=O)c4ccc(NC(=O)C(C)(C)C)cc4)cc3F)C(=O)O)cc2)c1=O [Compound A8]
9 | 4.5 nM | Cn1c(=O)n(-c2ccc(C[C@H](NC(=O)c3cc(F)c(NS(=O)(=O)c4ccc(NC(=O)C(C)(C)C)s4)cc3F)C(=O)O)cc2)c(=O)c2ccncc21 [Compound A9]
10 | 10 nM | Cc1c(C)n(C)c(=O)n(-c2ccc(C[C@H](NC(=O)c3cc(F)c(NS(=O)(=O)c4ccc(NC(=O)C(C)(C)C)s4)cc3F)C(=O)O)cc2)c1=O [Compound A10]
11 | 38 nM | Cc1c(C)n(C)c(=O)n(-c2ccc(C[C@H](NC(=O)c3cc(F)c(NS(=O)(=O)c4cc(NC(=O)C(C)(C)C)cs4)cc3F)C(=O)O)cc2)c1=O [Compound A11]
12 | 61 nM | Cn1c(=O)n(-c2ccc(C[C@H](NC(=O)c3cc(F)c(NS(=O)(=O)c4ccc(NC(=O)C(C)(C)C)c(F)c4)cc3F)C(=O)O)cc2)c(=O)c2ccncc21 [Compound A12]
13 | 12 nM | Cn1c(=O)n(-c2ccc(C[C@H](NC(=O)c3cc(F)c(NS(=O)(=O)c4ccc(NC(=O)C5CCOCC5)cc4)cc3F)C(=O)O)cc2)c(=O)c2ccncc21 [Compound A14]
14 | 14 nM | Cc1c(C)n(C)c(=O)n(-c2ccc(C[C@H](NC(=O)c3cc(F)c(NS(=O)(=O)c4ccc(NC(=O)C5CCOCC5)cc4)cc3F)C(=O)O)cc2)c1=O [Compound A15]
15 | 44 nM | COC1(C(=O)Nc2ccc(S(=O)(=O)Nc3cc(F)c(C(=O)N[C@@H](Cc4ccc(-n5c(=O)c6ccncc6n(C)c5=O)cc4)C(=O)O)cc3F)cc2)CC1 [Compound A16]
16 | 67 nM | COC1(C(=O)Nc2ccc(S(=O)(=O)Nc3cc(F)c(C(=O)N[C@@H](Cc4ccc(-n5c(=O)c(C)c(C)n(C)c5=O)cc4)C(=O)O)cc3F)cc2)CC1 [Compound A17]
17 | 9 nM | Cn1c(=O)n(-c2ccc(C[C@H](NC(=O)c3cc(F)c(NS(=O)(=O)c4ccc(NC(=O)C(C)(C)CO)cc4)cc3F)C(=O)O)cc2)c(=O)c2ccncc21 [Compound A18]
18 | 4.6 nM | Cc1c(C)n(C)c(=O)n(-c2ccc(C[C@H](NC(=O)c3cc(F)c(NS(=O)(=O)c4ccc(NC(=O)C(C)(C)C)cn4)cc3F)C(=O)O)cc2)c1=O [Compound A19]
19 | 17 nM | Cc1c(C)n(C)c(=O)n(-c2ccc(C[C@H](NC(=O)c3cc(F)c(NS(=O)(=O)c4ccc(NC(=O)C5(C(F)(F)F)CC5)cc4)cc3F)C(=O)O)cc2)c1=O [Compound A20]
20 | 7.2 nM | Cc1c(C)n(C)c(=O)n(-c2ccc(C[C@H](NC(=O)c3cc(F)c(NS(=O)(=O)c4ccc(NC(=O)C(C)(C)CO)cc4)cc3F)C(=O)O)cc2)c1=O [Compound A21]
21 | 25 nM | Cc1c(C)n(C)c(=O)n(-c2ccc(C[C@H](NC(=O)c3cc(F)c(NS(=O)(=O)c4ccc(NC(=O)C5(O)CC5)cc4)cc3F)C(=O)O)cc2)c1=O [Compound A22]
22 | 32 nM | Cn1c(=O)n(-c2ccc(C[C@H](NC(=O)c3cc(F)c(NS(=O)(=O)c4ccc(NC(=O)C5(O)CC5)cc4)cc3F)C(=O)O)cc2)c(=O)c2ccncc21 [Compound A23]
23 | 15 nM | Cn1c(=O)n(-c2ccc(C[C@H](NC(=O)c3cc(F)c(NS(=O)(=O)c4ccc(NC(=O)C5(C(F)(F)F)CC5)cc4)cc3F)C(=O)O)cc2)c(=O)c2ccncc21 [Compound A24]
24 | 48 nM | Cc1c(C)n(C)c(=O)n(-c2ccc(C[C@H](NC(=O)c3cc(F)c(NS(=O)(=O)c4ccc(NC(=O)C(C)(C)C)nc4)cc3F)C(=O)O)cc2)c1=O [Compound A25]
25 | 6.4 nM | Cn1c(=O)n(-c2ccc(C[C@H](NC(=O)c3cc(F)c(NS(=O)(=O)c4ccc(NC(=O)C(C)(C)C)cc4)cc3F)C(=O)O)cn2)c(=O)c2ccncc21 [Compound A26]
26 | 2.4 nM | Cn1c2c(c(=O)n(-c3ccc(C[C@H](NC(=O)c4cc(F)c(NS(=O)(=O)c5ccc(NC(=O)C(C)(C)C)cc5)cc4F)C(=O)O)cc3)c1=O)CCOC2 [Compound A27]
